US9113629B2, “4-amino-6-(4-substituted-phenyl)-picolinates and 6-amino-2-(4-substituted-phenyl)-pyrimidine-4-carboxylates and their use as herbicides” (DOW AGROSCIENCES LLC, priority 2013, dated 2015)

System: Key Broadleaf Weed and Crop Species
Assay: Post-emergent Test II herbicidal activity (Table 5)
Assay type: in vivo
Conditions: post-emergence, 336 h; ABUTH: velvetleaf (Abutilon theophrasti); 70 g ai/ha; post-emergent; 14 days after application; read-out: Visual Growth Reduction (%) 14 Days After Application ABUTH
How it was run: (§1)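 Foliar application at 187 L/ha to greenhouse-grown seedlings (first or second true leaf); subirrigation thereafter. Visual 0–100% injury at 14 d relative to untreated plants.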
`COC(=O)c1nc(-c2ccc(OC(F)F)cc2)cc(N)c1Cl` [Compound 23] gave a pest or weed control at 70 g/ha of 95 to 100%.

Same assay, conditions: post-emergence, 336 h; ABUTH: velvetleaf (Abutilon theophrasti); 140 g ai/ha; post-emergent; 14 days after application; read-out: Visual Growth Reduction (%) 14 Days After Application ABUTH
For `COC(=O)c1nc(-c2ccc(OC(F)F)cc2)cc(N)c1Cl` [Compound 23], the pest or weed control at 140 g/ha was 95 to 100%.

Same assay, conditions: post-emergence, 336 h; AMARE: redroot pigweed (Amaranthus retroflexus); 70 g ai/ha; post-emergent; 14 days after application; read-out: Visual Growth Reduction (%) 14 Days After Application AMARE
`COC(=O)c1nc(-c2ccc(OC(F)F)cc2)cc(N)c1Cl` [Compound 23] showed a pest or weed control at 70 g/ha of 95 to 100%.

Same assay, conditions: post-emergence, 336 h; AMARE: redroot pigweed (Amaranthus retroflexus); 140 g ai/ha; post-emergent; 14 days after application; read-out: Visual Growth Reduction (%) 14 Days After Application AMARE
For `COC(=O)c1nc(-c2ccc(OC(F)F)cc2)cc(N)c1Cl` [Compound 23], the pest or weed control at 140 g/ha was 95 to 100%.

Same assay, conditions: post-emergence, 336 h; BRSNN: oilseed-rape, canola (Brassica napus); 70 g ai/ha; post-emergent; 14 days after application; read-out: Visual Growth Reduction (%) 14 Days After Application BRSNN
Work on `COC(=O)c1nc(-c2ccc(OC(F)F)cc2)cc(N)c1Cl` [Compound 23] yielded a pest or weed control at 70 g/ha of 0 to 29%.

Same assay, conditions: post-emergence, 336 h; BRSNN: oilseed-rape, canola (Brassica napus); 140 g ai/ha; post-emergent; 14 days after application; read-out: Visual Growth Reduction (%) 14 Days After Application BRSNN
Compound `COC(=O)c1nc(-c2ccc(OC(F)F)cc2)cc(N)c1Cl` [Compound 23] has a pest or weed control at 140 g/ha of 0 to 29%.

Same assay, conditions: post-emergence, 336 h; CHEAL: lambsquarters (Chenopodium album); 70 g ai/ha; post-emergent; 14 days after application; read-out: Visual Growth Reduction (%) 14 Days After Application CHEAL
With `COC(=O)c1nc(-c2ccc(OC(F)F)cc2)cc(N)c1Cl` [Compound 23] the pest or weed control at 70 g/ha was 85 to 94%.

Same assay, conditions: post-emergence, 336 h; CHEAL: lambsquarters (Chenopodium album); 140 g ai/ha; post-emergent; 14 days after application; read-out: Visual Growth Reduction (%) 14 Days After Application CHEAL
For `COC(=O)c1nc(-c2ccc(OC(F)F)cc2)cc(N)c1Cl` [Compound 23], the pest or weed control at 140 g/ha was 95 to 100%.

Same assay, conditions: post-emergence, 336 h; EPHHL: wild poinsettia (Euphorbia heterophylla); 70 g ai/ha; post-emergent; 14 days after application; read-out: Visual Growth Reduction (%) 14 Days After Application EPHHL
`COC(=O)c1nc(-c2ccc(OC(F)F)cc2)cc(N)c1Cl` [Compound 23] gave a pest or weed control at 70 g/ha of 95 to 100%.

Same assay, conditions: post-emergence, 336 h; EPHHL: wild poinsettia (Euphorbia heterophylla); 140 g ai/ha; post-emergent; 14 days after application; read-out: Visual Growth Reduction (%) 14 Days After Application EPHHL
For `COC(=O)c1nc(-c2ccc(OC(F)F)cc2)cc(N)c1Cl` [Compound 23], the pest or weed control at 140 g/ha was 95 to 100%.

Same assay, conditions: post-emergence, 336 h; HELAN: sunflower (Helianthus annuus); 70 g ai/ha; post-emergent; 14 days after application; read-out: Visual Growth Reduction (%) 14 Days After Application HELAN
For `COC(=O)c1nc(-c2ccc(OC(F)F)cc2)cc(N)c1Cl` [Compound 23], the pest or weed control at 70 g/ha was 0 to 29%.

Same assay, conditions: post-emergence, 336 h; HELAN: sunflower (Helianthus annuus); 140 g ai/ha; post-emergent; 14 days after application; read-out: Visual Growth Reduction (%) 14 Days After Application HELAN
`COC(=O)c1nc(-c2ccc(OC(F)F)cc2)cc(N)c1Cl` [Compound 23] showed a pest or weed control at 140 g/ha of 85 to 94%.

Same assay, conditions: post-emergence, 336 h; VIOTR: wild pansy (Viola tricolor); 70 g ai/ha; post-emergent; 14 days after application; read-out: Visual Growth Reduction (%) 14 Days After Application VIOTR
Work on `COC(=O)c1nc(-c2ccc(OC(F)F)cc2)cc(N)c1Cl` [Compound 23] yielded a pest or weed control at 70 g/ha of 0 to 29%.

Same assay, conditions: post-emergence, 336 h; VIOTR: wild pansy (Viola tricolor); 140 g ai/ha; post-emergent; 14 days after application; read-out: Visual Growth Reduction (%) 14 Days After Application VIOTR
For `COC(=O)c1nc(-c2ccc(OC(F)F)cc2)cc(N)c1Cl` [Compound 23], the pest or weed control at 140 g/ha was 0 to 29%.

System: not given
Assay: not given
Conditions: not given
For `COC(=O)c1nc(-c2ccc(OC(F)F)cc2)cc(N)c1Cl` [Compound 23], the melting point was 166.4 to 169 °C.

System: Key Grass and Sedge Weeds as well as Grass Crops
Assay: Post-emergent Test II herbicidal activity (Table 6)
Assay type: in vivo
Conditions: Triticum aestivum, post-emergence, 336 h, TRZSS (wheat), application rate 70 g ai/ha, read-out: Visual Growth Reduction (%) 14 Days After Application, TRZSS
How it was run: as §1
Compound `COC(=O)c1nc(-c2ccc(OC(F)F)cc2)cc(N)c1Cl` [Compound 23] has a pest or weed control at 70 g/ha of 0 to 29%.

Same assay, conditions: Triticum aestivum, post-emergence, 336 h, TRZSS (wheat), application rate 140 g ai/ha, read-out: Visual Growth Reduction (%) 14 Days After Application, TRZSS
`COC(=O)c1nc(-c2ccc(OC(F)F)cc2)cc(N)c1Cl` [Compound 23] showed a pest or weed control at 140 g/ha of 0 to 29%.

Same assay, conditions: post-emergence, 336 h, CYPES: yellow nutsedge (Cyperus esculentus), application rate 70 g ai/ha, read-out: Visual Growth Reduction (%) 14 Days After Application, CYPES
In the case of `COC(=O)c1nc(-c2ccc(OC(F)F)cc2)cc(N)c1Cl` [Compound 23], the pest or weed control at 70 g/ha is reported as 45 to 59%.

Same assay, conditions: post-emergence, 336 h, CYPES: yellow nutsedge (Cyperus esculentus), application rate 140 g ai/ha, read-out: Visual Growth Reduction (%) 14 Days After Application, CYPES
Work on `COC(=O)c1nc(-c2ccc(OC(F)F)cc2)cc(N)c1Cl` [Compound 23] yielded a pest or weed control at 140 g/ha of 75 to 84%.

Same assay, conditions: post-emergence, 336 h, DIGSA: crabgrass (Digitaria sanguinalis), application rate 70 g ai/ha, read-out: Visual Growth Reduction (%) 14 Days After Application, DIGSA
`COC(=O)c1nc(-c2ccc(OC(F)F)cc2)cc(N)c1Cl` [Compound 23] showed a pest or weed control at 70 g/ha of 75 to 84%.

Same assay, conditions: post-emergence, 336 h, DIGSA: crabgrass (Digitaria sanguinalis), application rate 140 g ai/ha, read-out: Visual Growth Reduction (%) 14 Days After Application, DIGSA
`COC(=O)c1nc(-c2ccc(OC(F)F)cc2)cc(N)c1Cl` [Compound 23] showed a pest or weed control at 140 g/ha of 75 to 84%.

Same assay, conditions: post-emergence, 336 h, ECHCG: barnyardgrass (Echinochloa crus-galli), application rate 70 g ai/ha, read-out: Visual Growth Reduction (%) 14 Days After Application, ECHCG
Compound `COC(=O)c1nc(-c2ccc(OC(F)F)cc2)cc(N)c1Cl` [Compound 23] has a pest or weed control at 70 g/ha of 85 to 94%.

Same assay, conditions: post-emergence, 336 h, ECHCG: barnyardgrass (Echinochloa crus-galli), application rate 140 g ai/ha, read-out: Visual Growth Reduction (%) 14 Days After Application, ECHCG
With `COC(=O)c1nc(-c2ccc(OC(F)F)cc2)cc(N)c1Cl` [Compound 23] the pest or weed control at 140 g/ha was 95 to 100%.

Same assay, conditions: post-emergence, 336 h, ORYSA: rice (Oryza sativa), application rate 70 g ai/ha, read-out: Visual Growth Reduction (%) 14 Days After Application, ORYSA
Work on `COC(=O)c1nc(-c2ccc(OC(F)F)cc2)cc(N)c1Cl` [Compound 23] yielded a pest or weed control at 70 g/ha of 0 to 29%.

Same assay, conditions: post-emergence, 336 h, ORYSA: rice (Oryza sativa), application rate 140 g ai/ha, read-out: Visual Growth Reduction (%) 14 Days After Application, ORYSA
Work on `COC(=O)c1nc(-c2ccc(OC(F)F)cc2)cc(N)c1Cl` [Compound 23] yielded a pest or weed control at 140 g/ha of 0 to 29%.

Same assay, conditions: post-emergence, 336 h, SETFA: giant foxtail (Setaria faberi), application rate 70 g ai/ha, read-out: Visual Growth Reduction (%) 14 Days After Application, SETFA
In the case of `COC(=O)c1nc(-c2ccc(OC(F)F)cc2)cc(N)c1Cl` [Compound 23], the pest or weed control at 70 g/ha is reported as 0 to 29%.

Same assay, conditions: post-emergence, 336 h, SETFA: giant foxtail (Setaria faberi), application rate 140 g ai/ha, read-out: Visual Growth Reduction (%) 14 Days After Application, SETFA
`COC(=O)c1nc(-c2ccc(OC(F)F)cc2)cc(N)c1Cl` [Compound 23] showed a pest or weed control at 140 g/ha of 45 to 59%.

Same assay, conditions: post-emergence, 336 h, SORVU: grain sorghum (Sorghum vulgare), application rate 70 g ai/ha, read-out: Visual Growth Reduction (%) 14 Days After Application, SORVU
For `COC(=O)c1nc(-c2ccc(OC(F)F)cc2)cc(N)c1Cl` [Compound 23], the pest or weed control at 70 g/ha was 85 to 94%.

Same assay, conditions: post-emergence, 336 h, SORVU: grain sorghum (Sorghum vulgare), application rate 140 g ai/ha, read-out: Visual Growth Reduction (%) 14 Days After Application, SORVU
`COC(=O)c1nc(-c2ccc(OC(F)F)cc2)cc(N)c1Cl` [Compound 23] gave a pest or weed control at 140 g/ha of 95 to 100%.

Same assay, conditions: post-emergence, 336 h, ZEAMX: maize, corn (Zea mays), application rate 70 g ai/ha, read-out: Visual Growth Reduction (%) 14 Days After Application, ZEAMX
For `COC(=O)c1nc(-c2ccc(OC(F)F)cc2)cc(N)c1Cl` [Compound 23], the pest or weed control at 70 g/ha was 0 to 29%.

Same assay, conditions: post-emergence, 336 h, ZEAMX: maize, corn (Zea mays), application rate 140 g ai/ha, read-out: Visual Growth Reduction (%) 14 Days After Application, ZEAMX
With `COC(=O)c1nc(-c2ccc(OC(F)F)cc2)cc(N)c1Cl` [Compound 23] the pest or weed control at 140 g/ha was 0 to 29%.
